Measurements from US10308615B2, “Heterocyclic compounds as inhibitors of Vanin-1 enzyme” (Pfizer Inc., priority 2015, dated 2019).

Experiments:
Type in all cases: biochemical
human vanin-1 [1] = target: T1, human vanin-1 (Homo sapiens (Human), UniProt O95497); experiment: Human Vanin-1 Enzyme Assay 1; conditions: 25 pM human vanin-1, 50 uM pantetheine 7-amino-4-trifluoromethylcoumarin, 30 min preincubation, 60 min
Protocol: Human Vanin-1 Enzyme Assay 1.
(§1) The in vitro assay measures enzymatic cleavage of the fluorescently-labeled vanin substrate, pantetheine 7-amino-4-trifluoromethylcoumarin, by human vanin-1.
(§2) The vanin-1 protein was prepared in-house from a construct expressing the extracellular domain of human vanin-1 (GenBank ID NM_004666) preceded N-terminally by the honey bee melittin signal peptide, a GSG linker sequence, a His6X tag and a FLAG tag. The secreted, soluble enzyme was purified from the conditioned medium from a CHO cell line stably expressing the resulting protein. Enzyme purification was performed through sequential Ni NTA and size-exclusion chromatography steps.
The test inhibitors were solubilized in DMSO to a stock concentration of 30 mM. On the day of the assay, dose response plates were prepared by diluting the inhibitors in DMSO at compound concentration 200-fold the final in-assay concentration. Intermediate concentrations were prepared by diluting in DMSO in a four-fold series for a total of 11 data points.
To prepare a working solution of human vanin-1, the enzyme was diluted to 33.3 pM in the assay buffer consisting of 50 mM Tris-HCl pH=8.0, 50 mM KCl, 0.005% Brij-35 and […] cysteamine. To begin the assay 100 nL was transferred from the compound plate to the assay plate. Next, 15 μL of the vanin-1 working solution were transferred to the assay plate. The inhibitor and enzyme were incubated at room temperature for 30 minutes. The enzyme reaction was then initiated by the addition of 5 μL of 200 μM pantetheine 7-amino-4-trifluoromethylcoumarin prepared in assay buffer. The final concentrations in the assay were 25 pM human vanin-1 and 50 uM substrate. The final concentration of DMSO was 0.5%. The assay plates were incubated for 60 minutes and before they were read on a Perkin Elmer EnVision Model 2103 using a 405 nm excitation wavelength and a 510 nm emission wavelength for detection.

human vanin-1 [2] = target: T1, human vanin-1; experiment: Human Vanin-1 Enzyme Assay 2; conditions: 1 nM human vanin-1, 10 uM substrate, 45 min
Protocol: Human Vanin-1 Enzyme Assay 2.
as §1, §2
(§3) On the day of the assay, dose response plates were prepared by diluting the inhibitors in DMSO at compound concentration 100-fold the final in-assay concentration. Concentration series were prepared by serially diluting in DMSO in a half-log series for a total of 11 data points. Intermediate compound plates containing compound in 10% DMSO were then created by diluting the compounds 10-fold in assay buffer consisting of 50 mM Tris-HCl pH=8.0, 50 mM KCl, 0.005% Brij-35 and 1.5 mM cysteamine. To begin the assay 3 μL were transferred from the intermediate compound plate to the assay plate.
A working solution of human vanin-1 was prepared by diluting the enzyme stock to 1.25 nM in assay buffer. Next, 24 μL of the vanin-1 working solution were transferred to the assay plate. The enzyme reaction was then initiated by the addition of 3 μL of 100 μM pantetheine 7-amino-4-trifluoromethylcoumarin prepared in assay buffer. The final concentrations in the assay were 1 nM human vanin-1 and 10 uM substrate. The final concentration of DMSO was 1%. The assay plates were incubated for 45 minutes and before they were read on a Spectramax M5 using a 405 nm excitation wavelength and a 505 nm emission wavelength for detection.

human vanin-1 [3] = target: T1, human vanin-1; experiment: Human Vanin-1 Enzyme Assay 3; conditions: 2 nM human vanin-1, 10 uM substrate, 15 min
Protocol: Human Vanin-1 Enzyme Assay 3.
as §1, §2
as §3, with “two-fold” for “half-log”
A working solution of human vanin-1 was prepared by diluting the enzyme stock to 2.5 nM in assay buffer. Next, 24 μL of the vanin-1 working solution were transferred to the assay plate. The enzyme reaction was then initiated by the addition of 3 μL of 100 μM pantetheine 7-amino-4-trifluoromethylcoumarin prepared in 5 uM acetic acid. The final concentrations in the assay were 2 nM human vanin-1 and 10 uM substrate. The final concentration of DMSO was 1%. The assay plates were incubated at room temperature for 15 minutes and before they were read on a Tecan Safire using a 405 nm excitation wavelength and a 505 nm emission wavelength for detection.

T1 sequence (O95497 22-491): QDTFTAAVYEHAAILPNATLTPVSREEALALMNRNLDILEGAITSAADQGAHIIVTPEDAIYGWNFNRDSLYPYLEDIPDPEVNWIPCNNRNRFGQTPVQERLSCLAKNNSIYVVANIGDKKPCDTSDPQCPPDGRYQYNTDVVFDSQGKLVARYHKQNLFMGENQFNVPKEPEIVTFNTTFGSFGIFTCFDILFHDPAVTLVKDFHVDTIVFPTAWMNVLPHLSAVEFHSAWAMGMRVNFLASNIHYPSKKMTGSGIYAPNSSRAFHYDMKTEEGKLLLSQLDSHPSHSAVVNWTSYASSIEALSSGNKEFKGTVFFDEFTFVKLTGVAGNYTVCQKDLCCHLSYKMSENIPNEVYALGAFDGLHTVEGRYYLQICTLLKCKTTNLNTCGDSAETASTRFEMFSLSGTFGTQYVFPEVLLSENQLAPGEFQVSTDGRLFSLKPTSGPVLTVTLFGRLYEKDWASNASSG

Row | SMILES | IC50 (human vanin-1 [1]) | IC50 (human vanin-1 [2]) | IC50 (human vanin-1 [3])
1 | CC(Nc1ncc(C(=O)c2cccc(C#N)c2)cn1)c1ccc(C(N)=O)cc1 (single isomer, unassigned; (+)) [Example 10, (+)-4-(1-{[5-(3-cyanobenzoyl)pyrimidin-2-yl]amino}ethyl)benzamide] | > 20000 nM | > 10000 nM | –
2 | CC(Nc1ncc(C(=O)c2cccc(C#N)c2)cn1)c1ccc(C(N)=O)cc1 (single isomer, unassigned; (-)) [Example 9, (−)-4-(1-{[5-(3-cyanobenzoyl)pyrimidin-2-yl]amino}ethyl)benzamide] | 10.3 nM | 41.3 nM | –
3 | N#Cc1cccc(C(=O)c2cnc(NCc3cnc(N)nc3)nc2)c1 [Example 4, 3-[(2-{[(2-aminopyrimidin-5-yl)methyl]amino}pyrimidin-5-yl)carbonyl]benzonitrile] | 22.4 nM | 21 nM | –
4 | N#Cc1cccc(C(=O)c2cnc(NC3(c4cnccn4)CC3)nc2)c1 [Example 5, 3-[(2-{[1-(pyrazin-2-yl)cyclopropyl]amino}pyrimidin-5-yl)carbonyl]benzonitrile] | 3.4 nM | 9.8 nM | –
5 | N#Cc1cccc(C(=O)c2cnc(NCc3ccc(N)nc3)nc2)c1 [Example 6, 3-[(2-{[(6-aminopyridin-3-yl)methyl]amino}pyrimidin-5-yl)carbonyl]benzonitrile] | 37.3 nM | 24.8 nM | –
6 | CC(Nc1ncc(C(=O)c2cccc(C#N)c2)cn1)c1cccnc1 (stereo not drawn) [Example 7, 3-[(2-{[1-(pyridin-3-yl)ethyl]amino}pyrimidin-5-yl)carbonyl]benzonitrile] | – | 3.9 nM | –
7 | CC(Nc1ncc(C(=O)c2cccc(C#N)c2)cn1)c1ccc(C(N)=O)cc1 (stereo not drawn) [Example 8, 4-(1-{[5-(3-cyanobenzoyl)pyrimidin-2-yl]amino}ethyl)benzamide] | – | 91.4 nM | –
8 | O=C(c1cnc(NC2(c3cncnc3)CC2)nc1)c1cccc(C(F)(F)F)c1 [Example 16, (2-{[1-(pyrimidin-5-yl)cyclopropyl]amino}pyrimidin-5-yl)[3-(trifluoromethyl)phenyl]methanone] | 1.7 nM | 2.6 nM | –
9 | CS(=O)(=O)c1cccc(C(=O)c2cnc(NC3(c4cncnc4)CC3)nc2)c1 [Example 17, [3-(methylsulfonyl)phenyl](2-{[1-(pyrimidin-5-yl)cyclopropyl]amino}pyrimidin-5-yl)methanone] | 0.8 nM | 1.8 nM | –
10 | COc1cccc(C(=O)c2cnc(NC3(c4cncnc4)CC3)nc2)c1 [Example 18, (3-methoxyphenyl)(2-{[1-(pyrimidin-5-yl)cyclopropyl]amino}pyrimidin-5-yl)methanone] | 26.5 nM | 12.3 nM | –
11 | CS(=O)(=O)c1cccc(C(=O)c2ccc(NCc3cncnc3)nc2)c1 [Example 19, [3-(methylsulfonyl)phenyl]{6-[(pyrimidin-5-ylmethyl)amino]pyridin-3-yl}methanone] | 1440 nM | 28.8 nM | –
12 | CS(=O)(=O)c1cccc(C(=O)c2cnc(NCc3cncnc3)nc2)c1 [Example 20, [3-(methylsulfonyl)phenyl]{2-[(pyrimidin-5-ylmethyl)amino]pyrimidin-5-yl}methanone] | 9.4 nM | 17 nM | –
13 | CS(=O)(=O)c1cccc(C(=O)c2cnc(NCc3cccnn3)nc2)c1 [Example 21, [3-(methylsulfonyl)phenyl]{2-[(pyridazin-3-ylmethyl)amino]pyrimidin-5-yl}methanone] | – | 63 nM | –
14 | N#Cc1cccc(C(=O)c2cnc(NCc3cc[nH]c(=O)c3)nc2)c1 [Example 72, 3-[(2-{[(2-oxo-1,2-dihydropyridin-4-yl)methyl]amino}pyrimidin-5-yl)carbonyl] benzonitrile] | 188 nM | 86.2 nM | –
15 | O=C(c1cnc(NCc2ccc(F)cc2)nc1)c1cc(F)cc(C(F)(F)F)c1 [Example 127, {2-[(4-fluorobenzyl)amino]pyrimidin-5-yl}[3-fluoro-5-(trifluoromethyl)phenyl]methanone] | 3950 nM | – | 36.2 nM
16 | N#Cc1cccc(C(=O)c2cnc(NC3(c4ccccc4)CCC3)nc2)c1 [Example 129, 3-({2-[(1-phenylcyclobutyl)amino]pyrimidin-5-yl}carbonyl) benzonitrile] | 9.9 nM | 12.4 nM | –
17 | N#Cc1cc(F)cc(C(=O)c2cnc(NCc3cncnc3)nc2)c1 [Example 130, 3-fluoro-5-({2-[(pyrimidin-5-ylmethyl)amino]pyrimidin-5-yl}carbonyl) benzonitrile] | 482 nM | 289 nM | –
18 | N#Cc1ccc(F)c(C(=O)c2cnc(NCc3cncnc3)nc2)c1 [Example 131, 4-fluoro-3-({2-[(pyrimidin-5-ylmethyl)amino]pyrimidin-5-yl}carbonyl) benzonitrile] | 541 nM | 370 nM | –
19 | Cc1ccc(C(=O)c2cnc(NCc3cncnc3)nc2)cc1C#N [Example 132, 2-methyl-5-({2-[(pyrimidin-5-ylmethyl)amino]pyrimidin-5-yl}carbonyl) benzonitrile] | 126 nM | 98.2 nM | –
20 | CC(Nc1ncc(C(=O)c2cccc(C#N)c2)cn1)c1cncnc1 (stereo not drawn) [Example 133, 3-[(2-{[1-(pyrimidin-5-yl)ethyl]amino}pyrimidin-5-yl)carbonyl] benzonitrile] | – | 15.5 nM | –
21 | N#Cc1cc(C(=O)c2cnc(NCc3cncnc3)nc2)ccc1Cl [Example 134, 2-chloro-5-({2-[(pyrimidin-5-ylmethyl)amino]pyrimidin-5-yl}carbonyl) benzonitrile] | 259 nM | 100 nM | –
22 | N#Cc1cc(C(=O)c2cnc(NCc3cncnc3)nc2)ccc1F [Example 135, 2-fluoro-5-({2-[(pyrimidin-5-ylmethyl)amino]pyrimidin-5-yl}carbonyl) benzonitrile] | 48.4 nM | 68.3 nM | –
23 | O=C(c1ccc(NCc2cncnc2)nc1)c1cccc(C(F)(F)F)c1 [Example 139, {6-[(pyrimidin-5-ylmethyl)amino]pyridin-3-yl}[3-(trifluoromethyl)phenyl]methanone] | – | 31.5 nM | –
24 | O=C(c1cnc(NCc2cncnc2)nc1)c1ccnc(C(F)(F)F)c1 [Example 141, {2-[(pyrimidin-5-ylmethyl)amino]pyrimidin-5-yl}[2-(trifluoromethyl)pyridin-4-yl]methanone] | – | 280 nM | –
25 | O=C(c1cnc(OCc2ccccc2)nc1)c1cccc(C(F)(F)F)c1 [Example 155, [2-(benzyloxy)pyrimidin-5-yl][3-(trifluoromethyl)phenyl]methanone] | > 20000 nM | – | > 1110 nM
26 | O=C(c1cnc(OCc2ccc(F)cc2F)nc1)c1cccc(C(F)(F)F)c1 [Example 156, {2-[(2,4-difluorobenzyl)oxy]pyrimidin-5-yl}[3-(trifluoromethyl)phenyl]methanone] | > 20000 nM | – | > 1130 nM
27 | CCN1CCCC1CNc1ncc(C(=O)c2cccc(C(F)(F)F)c2)cn1 (stereo not drawn) [Example 165, (2-{[(1-ethylpyrrolidin-2-yl)methyl]amino}pyrimidin-5-yl)[3-(trifluoromethyl)phenyl]methanone] | 11900 nM | – | 6900 nM
